# Experimental data published in patent US8901118B2, “Compounds and methods for kinase modulation, and indications therefor” (Plexxikon Inc., priority 2010, dated 2014).
# How the values were obtained:
# [1] = biological target: T1, BCR-NTRK1 BaF3 cells (Homo sapiens, UniProt P04629); assay: BaF3 BCR-NTRK1 cell proliferation assay (ATPlite); assay type: cell-based; settings: read-out: Inhibition of Cell Proliferation IC50, BCR/BaF3 TrkA
# T1 construct: fused on or other part: P11274 (Breakpoint cluster region protein)
# Method in brief: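 BaF3 cells expressing BCR fusions were plated at 10,000 cells/well without IL-3, and MV-4-11 cells at 25,000 cells/well. Cells were treated the next day with an 8-point 1:3 dilution series (top 10 μM final) and incubated 3 days at 37 °C. ATPlite luminescence gave cell number, from which IC50 was fitted.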
# [2] = system: BCR-FMS BaF3 cells; assay: Splenomegaly mouse model, BCR-FMS BaF3 cells; assay type: in vivo
# Procedure: BaF3 cells are engineered with any of BCR-FMS, BCR-TRK1 or BCR-TRK2 to assess in vivo inhibitory effects of Fms, TrkA or TrkB inhibition, respectively. BaF3 cells are maintained in growth media (RPMI containing 10% FBS, 1% PenStrep, 1% NEAA, and 1% L-Glutamine, supplemented with 5% murine IL-3 and 1 mg/mL G418). Four days prior to start, 2×10^6 cells are inoculated into a T150 vented flask using the growth media and incubated at 37° C. in 5% CO2 for three days. One day prior to start, cells are collected by centrifugation and are suspended in growth media without IL-3. On the day of cell implant, the cells are collected by centrifugation, rinsed 3×20 mL with RPMI, then are suspended in 5.4 mL of media and counted, then adjusted with additional RPMI as needed to give 5×10^7 cells/mL. On day 1, female nu/nu mice at 5-6 weeks of age are injected intravenously with BaF3 cells injected injecting 0.1 mL (5×10^6) cells in the tail vein (mice without cell injected are included as control group). Compound stocks in dimethylsulfoxide are stored at room temperature protected from light. Stocks are diluted prior to dosing, diluting 22 μL of compound stock into 858 μL of diluent (or 50 μL into 1950 μL) to provide vehicle of 1.0% Polysorbate 80, 0.5% hydroxypropyl methyl cellulose, with final dimethylsulfoxide at 2.5% in all dosing suspensions and vehicle control. Dosing suspension is prepared prior to use, mixing by inversion and sonication in a water bath to make a uniform suspension. On days 10-18, mice are treated with vehicle only or the desired level of compound in vehicle, ˜0.2 mL per 25 gm mouse, once a day by oral gavage, or in some instances, twice per day. On day 18, mice are administered a final dose and two hours later a plasma sample is taken. At four hours following the final dose, mice are sacrificed, an additional plasma sample is collected and mouse spleens are removed and weighed. The average spleen weight of vehicle control group mice is compared to the average spleen weight of the test compound mice. Percent spleen growth inhibition is calculated as 100×[(spleen weight vehicle control-spleen weight test compound)/spleen weight vehicle control]. In some instances, the compounds were not tested in all of the assays as indicated by NA in the table below.
# [3] = system: SKNSH cells; assay: SKNSH (human neuroblastoma) cell proliferation assay (ATPlite); assay type: cell-based; settings: SK-N-SH, read-out: Inhibition of Cell Proliferation IC50, SKNSH
# Procedure: Compounds are assessed in a variety of cell based assays. For example BaF3 cells engineered with any of BCR-FMS, BCR-KIT, BCR-FLT3, BCR-NTRK1, BCR-NTRK2, and BCR-NTRK3, are used in cell proliferation assays to assess inhibitory activity of Fms, Kit, Flt-3, TrkA, TrkB, and TrkC, respectively. An MV-4-11 (leukemia) cell proliferation assay is used to assess inhibitory activity in Flt-3, and SKNSH (human neuroblastoma) cell proliferation assay is used to assess efficacy of Fms/Trk inhibitors. Additional cells may be assayed similarly to assess the efficacy of Fms/Trk inhibitors, such as MiaPaCa (human pancreatic cancer) and Capan-1 (human pancreatic carcinoma) cells. Reagent and assay conditions are as follows: • BaF3 cells: • Maintained in RPMI containing 10% FBS, 1% PenStrep, 1% NEAA, and 1% L-Glutamine, supplemented with 1 mg/mL G418 and 5% WEHI-CM (or recombinant murine IL-3). • Confluent cells are split 1:50 to 1:100 every 3-4 days. • MV-4-11 cells: • Maintained in Iscove's Modified Dulbecco's Medium containing 10% FBS. • Confluent cells are split 1:4 every 3-4 days. • SKNSH cells: RPMI containing 10% FBS. On day 1, cells are counted, then centrifuged in a conical tube for 5 minutes at 1000 rpm. The supernatant is removed and cells are re-suspended as follows: • BaF3: resuspend in growth media +1 mg/mL G418 (without WEHFIL-3) to 2×10^5 cells/mL. • MV-4-11: resuspend in growth media to 5×10^5 cells/mL. • SKNSH: resuspend in growth media to 2×10^4 cells/mL. The cells are plated (50 μL, 150 μL for SKNSH cells) in each well of a 96-well dish (Corning 3610) and incubated at 37° C. in 5% CO2 overnight, cells plated to a final concentration of cells as follows: • BaF3: 10,000 cells per well. • MV-4-11: 25,000 cells per well. • SKNSH: 3,000 cells per well. On day 2, compound at a maximum concentration of 5 mM is serially diluted 1:3 for a total of 8 point titration with DMSO as a control. A 1 μL aliquot of each dilution point is added to 249 μL growth media and 50 μL is added to a well containing cells, providing 10 μM compound for the maximum concentration point. The cells are incubated for 3 days at 37° C. in 5% CO2. For SKNSH cells, a 0.75 μL aliquot of appropriate dilution in DMSO is added to 150 μL of cells. On day 5, ATPlite 1 step Luminescence Assay System (Perkin Elmer #6016739) is brought to room temperature along with the cell cultures. ATPlite is added to each well as follows: • BaF3: 25 μL per well. • MV-4-11: 40 μL per well. • SKNSH: 20 μL per well. The cells are incubated at room temperature for 10 minutes, then luminescence is read on Safire reader. The measured luminescence correlates directly with cell number, such that the reading as a function of compound concentration is used to determine the IC50 value.
# It is understood that the results of these assays may vary as assay conditions are varied. Inhibition levels determined under the conditions described herein represent a relative activity for the compounds tested under the specific conditions employed. The cell based assays are likely to show variability due to the complexity of the system and the sensitivity thereof to any changes in the assay conditions. […] Results for compounds that are tested and show substantially no inhibition below the highest tested concentration are represented as “-” in the tables below. In some instances, the compounds were not tested in all of the assays, or assay results were not valid, as indicated by NA in the tables below.
# [4] = dosed once per day at 10 mg per kg
# T1 sequence (P04629 510-781): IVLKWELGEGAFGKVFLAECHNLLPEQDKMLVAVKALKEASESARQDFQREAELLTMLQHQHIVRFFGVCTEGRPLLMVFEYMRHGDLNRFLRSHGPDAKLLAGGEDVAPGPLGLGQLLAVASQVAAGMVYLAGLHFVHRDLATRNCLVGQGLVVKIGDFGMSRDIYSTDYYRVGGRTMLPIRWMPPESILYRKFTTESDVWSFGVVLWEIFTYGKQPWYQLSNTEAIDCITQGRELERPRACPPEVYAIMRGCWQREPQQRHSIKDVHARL
Structure (SMILES),IC50 [1] [nM],IC50 [3] [µM],"% spleen growth inhibition, Fms [2, 4] [%]","% spleen growth inhibition, Fms ([2]; dosed at 5 mg/kg) [%]"
"CCc1ccc(Nc2ccc(C(=O)c3c[nH]c4ncnc(NCC(F)(F)F)c34)c(F)n2)cn1 [Compound P-4120, [6-[(6-ethyl-3-pyridyl)amino]-2-fluoro-3-pyridyl]-[4-(2,2,2-trifluoroethylamino)-7H-pyrrolo[2,3-d]pyrimidin-5-yl]methanone]",< 10,< 1,37,
"O=C(c1ccc(Nc2ccc(C3CC3)nc2)nc1F)c1c[nH]c2ncnc(NCC(F)(F)F)c12 [Compound P-4090, [6-[(6-cyclopropyl-3-pyridyl)amino]-2-fluoro-3-pyridyl]-[4-(2,2,2-trifluoroethylamino)-7H-pyrrolo[2,3-d]pyrimidin-5-yl]methanone]",< 100,< 1,,38
"CNc1ncnc2[nH]cc(C(=O)c3ccc(NC4CCCCC4)nc3Cl)c12 [Compound P-4110, [2-chloro-6-(cyclohexylamino)-3-pyridyl]-[4-(methylamino)-7H-pyrrolo[2,3-d]pyrimidin-5-yl]methanone]",> 1000,< 10,30,

# Now from value to compound, other results behind:
IC50 [1] [nM],IC50 [3] [µM],Structure (SMILES),"% spleen growth inhibition, Fms [2, 4] [%]","% spleen growth inhibition, Fms ([2]; dosed at 5 mg/kg) [%]"
< 100,< 10,"COc1ccc(Nc2ccc(C(=O)c3c[nH]c4ncnc(NCC(F)(F)F)c34)c(F)n2)cn1 [Compound P-4084, [2-fluoro-6-[(6-methoxy-3-pyridyl)amino]-3-pyridyl]-[4-(2,2,2-trifluoroethylamino)-7H-pyrrolo[2,3-d]pyrimidin-5-yl]methanone]",6.2,
< 100,< 10,"Cc1ccc(Nc2ccc(C(=O)c3c[nH]c4ncnc(NCC(F)(F)F)c34)c(F)n2)cn1 [Compound P-4112, [2-fluoro-6-[(6-methyl-3-pyridyl)amino]-3-pyridyl]-[4-(2,2,2-trifluoroethylamino)-7H-pyrrolo[2,3-d]pyrimidin-5-yl]methanone]",9.5,
